Laboratory results reported in PubChem BioAssay AID1918954 (Molecular Pharmacology Branch, DTP, NCI, 2023).

System: MDA-MB-468 complex spheroids with HUVEC/MSC, viability
Test: Anticancer human tumor MDA-MB-468 cell line growth inhibition;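 note: spheroids exposed to agents for seven days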;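 for viability, T/C: 100% = DMSO vehicle control viability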
Conditions: for IC50: curve of first compound; for viability, T/C: stronger effect = lower value
Summary of the method: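 Multicellular complex spheroids of tumor cells with human endothelial cells (HUVEC) and mesenchymal stem cells; the LSD1 inhibitor iadademstat was combined with standard-of-care or investigational agents. Top concentration at or near clinical Cmax, half-log dilutions; final DMSO ≤0.25%.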

[1] = second compound 0.1 µM, first compound 0.000316 µM
[2] = second compound 0.1 µM, first compound 0.001 µM
[3] = second compound 0.1 µM, first compound 0.00316 µM
[4] = second compound 0.1 µM, first compound 0.01 µM
[5] = second compound 0.1 µM, first compound 0.0316 µM
[6] = second compound 0.1 µM, first compound 0.1 µM
[7] = second compound 0.316 µM, first compound 0.000316 µM
[8] = second compound 0.316 µM, first compound 0.001 µM
[9] = second compound 0.316 µM, first compound 0.00316 µM
[10] = second compound 0.316 µM, first compound 0.01 µM
[11] = second compound 0.316 µM, first compound 0.0316 µM
[12] = second compound 0.316 µM, first compound 0.1 µM
[13] = second compound 1 µM, first compound 0.000316 µM
[14] = second compound 1 µM, first compound 0.001 µM
[15] = second compound 1 µM, first compound 0.00316 µM
[16] = second compound 1 µM, first compound 0.01 µM
[17] = second compound 1 µM, first compound 0.0316 µM
[18] = second compound 1 µM, first compound 0.1 µM
[19] = second compound 3.16 µM, first compound 0.000316 µM
[20] = second compound 3.16 µM, first compound 0.001 µM
[21] = second compound 3.16 µM, first compound 0.00316 µM
[22] = second compound 3.16 µM, first compound 0.01 µM
[23] = second compound 3.16 µM, first compound 0.0316 µM
[24] = second compound 3.16 µM, first compound 0.1 µM
[25] = second compound 10 µM, first compound 0.000316 µM
[26] = second compound 10 µM, first compound 0.001 µM
[27] = second compound 10 µM, first compound 0.00316 µM
[28] = second compound 10 µM, first compound 0.01 µM
[29] = second compound 10 µM, first compound 0.0316 µM
[30] = second compound 10 µM, first compound 0.1 µM

Structure (SMILES) | IC50 (second compound 0.1 µM) | IC50 (second compound 0.316 µM) | IC50 (second compound 1 µM) | IC50 (second compound 3.16 µM) | IC50 (second compound 10 µM) | viability, T/C [3] | viability, T/C [4] | viability, T/C [5] | viability, T/C [6] | viability, T/C [9] | viability, T/C [10] | viability, T/C [11] | viability, T/C [12] | viability, T/C [15] | viability, T/C [16] | viability, T/C [17] | viability, T/C [18] | viability, T/C [21] | viability, T/C [22] | viability, T/C [23] | further results
CC(C)CC(NC(=O)C(Cc1ccccc1)NC(=O)c1cnccn1)B(O)O (stereo not given) + NC1CCC(NC2CC2c2ccccc2)CC1 | 0.699 nM | 0.592 nM | 0.642 nM | 0.646 nM | 0.562 nM | 1.52% | 0.94% | 1.06% | 1.23% | 0.94% | 1.12% | 1% | 0.68% | 0.63% | 1.08% | 1.55% | 0.88% | 1.11% | 1% | 0.77% | viability, T/C [1]: 102%; viability, T/C [2]: 26.4%; viability, T/C [7]: 86.6%; viability, T/C [8]: 19.5%; viability, T/C [13]: 94.1%; viability, T/C [14]: 22.2%; viability, T/C [19]: 91.9%; viability, T/C [20]: 24.5%; viability, T/C [24]: 1.37%; viability, T/C [25]: 83.9%; viability, T/C [26]: 16.1%; viability, T/C [27]: 1.08%; viability, T/C [28]: 0.25%; viability, T/C [29]: 1.63%; viability, T/C [30]: 2.35%
CC(C)CC(NC(=O)CNC(=O)c1cc(Cl)ccc1Cl)B1OC(=O)CC(CC(=O)O)(C(=O)O)O1 (stereo not given) + NC1CCC(NC2CC2c2ccccc2)CC1 | 3.9 nM | 3.97 nM | 3.33 nM | 4.4 nM | 2.99 nM | 59.5% | 8.34% | 1.37% | 1.7% | 60.4% | 7.32% | 2.63% | 1.14% | 52.1% | 9.33% | 1.32% | 1.76% | 67% | 7.42% | 1.53% | viability, T/C [1]: 110%; viability, T/C [2]: 115%; viability, T/C [7]: 98.6%; viability, T/C [8]: 99.2%; viability, T/C [13]: 89.9%; viability, T/C [14]: 118%; viability, T/C [19]: 72.7%; viability, T/C [20]: 101%; viability, T/C [24]: 1.59%; viability, T/C [25]: 80.6%; viability, T/C [26]: 65.4%; viability, T/C [27]: 50.3%; viability, T/C [28]: 4.74%; viability, T/C [29]: 2.13%; viability, T/C [30]: 2.15%
COc1cc(Nc2ncc3c(n2)-c2ccc(Cl)cc2C(c2c(F)cccc2OC)=NC3)ccc1C(=O)O + NC1CCC(NC2CC2c2ccccc2)CC1 | 5.48 nM | 5.74 nM | 5.62 nM | 4.4 nM | 4.25 nM | 67.1% | 31% | 15.9% | 7.27% | 70.7% | 30.2% | 16.6% | 8.6% | 69% | 29.8% | 17.8% | 8.46% | 57.8% | 30.5% | 19.4% | viability, T/C (second compound 0.1 µM, first compound 0.316 µM): 7.36%; viability, T/C (second compound 0.1 µM, first compound 1 µM): 6.36%; viability, T/C (second compound 0.316 µM, first compound 0.316 µM): 7.02%; viability, T/C (second compound 0.316 µM, first compound 1 µM): 7.03%; viability, T/C (second compound 1 µM, first compound 0.316 µM): 6.49%; viability, T/C (second compound 1 µM, first compound 1 µM): 7.09%; viability, T/C [24]: 9.33%; viability, T/C (second compound 3.16 µM, first compound 0.316 µM): 7.94%; viability, T/C (second compound 3.16 µM, first compound 1 µM): 6.66%; viability, T/C [27]: 57.7%; viability, T/C [28]: 28%; viability, T/C [29]: 19.1%; viability, T/C [30]: 11.6%; viability, T/C (second compound 10 µM, first compound 0.316 µM): 8.23%; viability, T/C (second compound 10 µM, first compound 1 µM): 9.73%
